Experimental data published in a compilation of properties of binary mixtures (doi:10.1007/s10973-016-5820-0).

Assay: xn = mol fraction of the nth substance listed
Details: 100 kPa

CCCC[n+]1ccn(C)c1.F[B-](F)(F)F + O=C1CCCCC1 gave a speed of sound (293.15 K, x1 = 1) of 1578.1 m/s, a speed of sound (298.15 K, x1 = 1) of 1565.5 m/s and a speed of sound (303.15 K, x1 = 1) of 1554.1 m/s. It also gave a speed of sound (308.15 K, x1 = 1) of 1542.3 m/s.

O=C1CCCCC1 + CCCC[n+]1ccn(C)c1.F[B-](F)(F)F showed a speed of sound (293.15 K, x2 = 0) of 1431.2 m/s, a speed of sound (293.15 K, x2 = 0.0736) of 1425.9 m/s and a speed of sound (293.15 K, x2 = 0.1128) of 1424.7 m/s. It also gave a speed of sound (293.15 K, x2 = 0.1597) of 1424.6 m/s, a speed of sound (293.15 K, x2 = 0.2933) of 1431.3 m/s and a speed of sound (293.15 K, x2 = 0.3481) of 1436.6 m/s. For the same molecule, the speed of sound (293.15 K, x2 = 0.3956) was 1442.2 m/s, the speed of sound (293.15 K, x2 = 0.4429) was 1448.6 m/s and the speed of sound (293.15 K, x2 = 0.4937) was 1456.5 m/s. For the same molecule, the speed of sound (293.15 K, x2 = 0.5344) was 1463.5 m/s, the speed of sound (293.15 K, x2 = 0.5938) was 1474.6 m/s and the speed of sound (293.15 K, x2 = 0.6557) was 1487.3 m/s. For the same molecule, the speed of sound (293.15 K, x2 = 0.7028) was 1497.8 m/s, the speed of sound (293.15 K, x2 = 0.7409) was 1506.7 m/s and the speed of sound (293.15 K, x2 = 0.7973) was 1520.6 m/s. It also gave a speed of sound (293.15 K, x2 = 0.8564) of 1536.1 m/s, a speed of sound (293.15 K, x2 = 0.9047) of 1549.6 m/s and a speed of sound (298.15 K, x2 = 0.0736) of 1409.5 m/s. The speed of sound (298.15 K, x2 = 0.1128) was 1408.5 m/s, the speed of sound (298.15 K, x2 = 0.2045) was 1409.9 m/s and the speed of sound (298.15 K, x2 = 0.2459) was 1412.1 m/s. For the same molecule, the speed of sound (298.15 K, x2 = 0.3481) was 1421.1 m/s, the speed of sound (298.15 K, x2 = 0.3956) was 1426.9 m/s and the speed of sound (298.15 K, x2 = 0.4429) was 1433.5 m/s. It also gave a speed of sound (298.15 K, x2 = 0.4937) of 1441.6 m/s, a speed of sound (298.15 K, x2 = 0.5344) of 1448.7 m/s and a speed of sound (298.15 K, x2 = 0.5938) of 1460.1 m/s. For the same molecule, the speed of sound (298.15 K, x2 = 0.6557) was 1473.1 m/s, the speed of sound (298.15 K, x2 = 0.7028) was 1483.8 m/s and the speed of sound (298.15 K, x2 = 0.7409) was 1493 m/s. The speed of sound (298.15 K, x2 = 0.7973) was 1507.2 m/s, the speed of sound (298.15 K, x2 = 0.8564) was 1523 m/s and the speed of sound (298.15 K, x2 = 0.9047) was 1536.7 m/s. The speed of sound (303.15 K, x2 = 0) was 1395.1 m/s, the speed of sound (303.15 K, x2 = 0.0736) was 1390.7 m/s and the speed of sound (303.15 K, x2 = 0.1597) was 1390.2 m/s. It also gave a speed of sound (303.15 K, x2 = 0.2045) of 1391.8 m/s, a speed of sound (303.15 K, x2 = 0.2459) of 1394.2 m/s and a speed of sound (303.15 K, x2 = 0.3481) of 1403.7 m/s. It also gave a speed of sound (303.15 K, x2 = 0.3956) of 1409.8 m/s, a speed of sound (303.15 K, x2 = 0.4429) of 1416.7 m/s and a speed of sound (303.15 K, x2 = 0.4937) of 1425.2 m/s. For the same molecule, the speed of sound (303.15 K, x2 = 0.5344) was 1432.6 m/s, the speed of sound (303.15 K, x2 = 0.5938) was 1444.5 m/s and the speed of sound (303.15 K, x2 = 0.7028) was 1469.3 m/s. It also gave a speed of sound (303.15 K, x2 = 0.7973) of 1493.7 m/s, a speed of sound (303.15 K, x2 = 0.8564) of 1510.2 m/s and a speed of sound (303.15 K, x2 = 0.9047) of 1524.4 m/s. It also gave a speed of sound (308.15 K, x2 = 0) of 1375.1 m/s, a speed of sound (308.15 K, x2 = 0.1597) of 1371.2 m/s and a speed of sound (308.15 K, x2 = 0.2045) of 1373 m/s. For the same molecule, the speed of sound (308.15 K, x2 = 0.2459) was 1375.6 m/s, the speed of sound (308.15 K, x2 = 0.2933) was 1379.7 m/s and the speed of sound (308.15 K, x2 = 0.3956) was 1392 m/s. The speed of sound (308.15 K, x2 = 0.4429) was 1399.3 m/s, the speed of sound (308.15 K, x2 = 0.4937) was 1408.1 m/s and the speed of sound (308.15 K, x2 = 0.5344) was 1415.8 m/s. For the same molecule, the speed of sound (308.15 K, x2 = 0.5938) was 1428.2 m/s, the speed of sound (308.15 K, x2 = 0.6557) was 1442.4 m/s and the speed of sound (308.15 K, x2 = 0.7028) was 1454 m/s. It also gave a speed of sound (308.15 K, x2 = 0.7973) of 1479.5 m/s and a speed of sound (308.15 K, x2 = 0.8564) of 1496.7 m/s.
